Reference: patent US10144732B2 (BIOGEN MA INC., priority 2014, dated 2018)
Counter-ions that a name gives are not always drawn.

target: T1, Human ATX protein (Homo sapiens, UniProt Q13822); assay: ATX biochemical assay (FRET, FS-3 substrate); conditions: FRET assay, FS-3 2 μM, ATX 1.0 μg/mL, 30 minutes preincubation, 2 hours reaction at room temperature; read-out: IC50
T1 construct: made in house
Outline: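 In-house human ATX (1.0 μg/mL final) was preincubated with compound for 30 min at room temperature in Tris buffer pH 7.4 with 1 mg/mL fatty acid free-BSA. FS-3 substrate (2 μM final) was then hydrolysed for 2 hours at room temperature, protected from light, and read as fluorescence at ex 485/em 538 nm.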

With `CCOC(=O)[C@H]1CC[C@H](CC(=O)N2CCc3c(C(F)(F)F)nn(Cc4ccc(Cl)cc4F)c3C2)CC1` [Example 2-1, trans-Ethyl 4-(2-(1-(4-chloro-2-fluorobenzyl)-3-(trifluoromethyl)-4,5-dihydro-1H-pyrazolo[3,4-c]pyridin-6(7H)-yl)-2-oxoethyl)cyclohexanecarboxylate] as the molecule, how does the IC50 read?
Its IC50 is no more than 0.1 µM.

With `CCOC(=O)C1CCCN(CC(=O)N2CCc3c(C(F)(F)F)nn(Cc4ccc(Cl)cc4F)c3C2)CC1` (stereo not shown) [Example 12-17, TFA salt] as the molecule, how does the IC50 read?
Its IC50 is no more than 0.1 µM.

`O=C(O)CC1CCN(CC(=O)N2CCc3c(C(F)(F)F)nn(Cc4ccc(Cl)cc4F)c3C2)C1` (stereo not shown) [Example 13-24, 2-(1-(2-(1-(4-Chloro-2-fluorobenzyl)-3-(trifluoromethyl)-4,5-dihydro-1H-pyrazolo[3,4-c]pyridin-6(7H)-yl)-2-oxoethyl)pyrrolidin-3-yl)acetic acid TFA salt] was tested. Which IC50 did it give?
The IC50 was no more than 0.1 µM.

`O=C(O[C@H]1CC[C@@H](C(=O)O)CC1)N1CCc2c(C(F)(F)F)nn(Cc3ccc(Cl)cc3F)c2C1` [Example 7-9, cis-4-((1-(4-Chloro-2-fluorobenzyl)-3-(trifluoromethyl)-4,5,6,7-tetrahydro-1H-pyrazolo[3,4-c]pyridine-6-carbonyl)oxy)cyclohexanecarboxylic acid] was tested. Which IC50 did it give?
The IC50 was no more than 0.1 µM.

With `O=C(CC1CCN(c2ccncc2)CC1)N1CCc2c(C(F)(F)F)nn(Cc3ccc(F)cc3)c2C1` [Example 18-4, 1-(1-(4-Fluorobenzyl)-3-(trifluoromethyl)-4,5-dihydro-1H-pyrazolo[3,4-c]pyridin-6(7H)-yl)-2-(1-(pyridin-4-yl)piperidin-4-yl)ethanone TFA salt] as the molecule, how does the IC50 read?
The IC50 was no more than 0.1 µM.

With `O=C(O[C@H]1CC[C@H](C(=O)O)CC1)N1CCc2c(C(F)(F)F)nn(Cc3ccc(Cl)cc3F)c2C1` [Example 7-10, trans-4-((1-(4-chloro-2-fluorobenzyl)-3-(trifluoromethyl)-4,5,6,7-tetrahydro-1H-pyrazolo[3,4-c]pyridine-6-carbonyl)oxy)cyclohexanecarboxylic acid] as the molecule, how does the IC50 read?
The IC50 was no more than 0.1 µM.

How did the IC50 turn out when `CC(C(=O)N1CCc2c(C(F)(F)F)nn(Cc3ccc(Cl)cc3F)c2C1)C1CCC(C(=O)O)CC1` (stereo not shown) [Example 6-4, 4-(1-(1-(4-Chloro-2-fluorobenzyl)-3-(trifluoromethyl)-4,5-dihydro-1H-pyrazolo[3,4-c]pyridin-6(7H)-yl)-1-oxopropan-2-yl)cyclohexanecarboxylic acid] was run?
Its IC50 is no more than 0.1 µM.

For `O=C(CC1CCN(c2ccncn2)CC1)N1CCc2c(C(F)(F)F)nn(Cc3ccc(F)cc3)c2C1` [Example 18-3, 1-(1-(4-Fluorobenzyl)-3-(trifluoromethyl)-4,5-dihydro-1H-pyrazolo[3,4-c]pyridin-6(7H)-yl)-2-(1-(pyrimidin-4-yl)piperidin-4-yl)ethanone TFA salt], which IC50 is on record?
Its IC50 is no more than 0.1 µM.

How did the IC50 turn out when `CN1CCC(CC(=O)N2CCc3c(C(F)(F)F)nn(Cc4ccc(F)cc4)c3C2)C1` (stereo not shown) [Example 10-5, 1-(1-(4-Fluorobenzyl)-3-(trifluoromethyl)-4,5-dihydro-1H-pyrazolo[3,4-c]pyridin-6(7H)-yl)-2-(1-methylpyrrolidin-3-yl)ethanone] was run?
Its IC50 is 0.1 to 0.25 µM.

Which IC50 does the source give for `O=C(O)C[C@H]1CC[C@@H](CC(=O)N2CCc3c(C(F)(F)F)nn(Cc4ccc(F)cc4)c3C2)CC1` [Example 5-49, 2-(cis-4-(2-(1-(4-Fluorobenzyl)-3-(trifluoromethyl)-4,5-dihydro1H-pyrazolo[3,4-c]pyridin-6(7H)-yl)-2-oxoethyl)cyclohexyl)acetic acid] here?
Its IC50 is no more than 0.1 µM.

For `O=C(CC1CCN2CCCC2C1)N1CCc2c(C(F)(F)F)nn(Cc3ccc(F)cc3)c2C1` (stereo not shown) [Example 1-34, 1-(1-(4-Fluorobenzyl)-3-(trifluoromethyl)-4,5-dihydro-1H-pyrazolo[3,4-c]pyridin-6(7H)-yl)-2-(octahydroindolizin-7-yl)ethanone TFA salt], which IC50 is on record?
The IC50 was no more than 0.1 µM.

Which IC50 does the source give for `CCC1CC(CC(=O)N2CCc3c(C(F)(F)F)nn(Cc4ccc(F)cc4)c3C2)CCN1` (stereo not shown) [Example 9-11, 2-(2-Ethylpiperidin-4-yl)-1-(1-(4-fluorobenzyl)-3-(trifluoromethyl)-4,5-dihydro-1H-pyrazolo[3,4-c]pyridin-6(7H)-yl)ethanone TFA salt] here?
Its IC50 is no more than 0.1 µM.

For `CN1CC(CC(=O)N2CCc3c(C(F)(F)F)nn(Cc4ccc(Cl)cc4F)c3C2)C[C@H]1C(=O)O` (stereo partly drawn) [Example 10-11, (2S)-4-(2-(1-(4-Chloro-2-fluorobenzyl)-3-(trifluoromethyl)-4,5-dihydro-1H-pyrazolo[3,4-c]pyridin-6(7H)-yl)-2-oxoethyl)-1-methylpyrrolidine-2-carboxylic acid TFA salt], which IC50 is on record?
Its IC50 is no more than 0.1 µM.

`O=C(O)C1CCN(CC(=O)N2CCc3c(C(F)(F)F)nn(Cc4ccc(F)cc4)c3C2)CC1` [Example 13-1, 1-(2-(1-(4-Fluorobenzyl)-3-(trifluoromethyl)-4,5-dihydro-1H-pyrazolo[3,4-c]pyridin-6(7H)-yl)-2-oxoethyl)piperidine-4-carboxylic acid] was tested. Which IC50 did it give?
Its IC50 is no more than 0.1 µM.

How did the IC50 turn out when `CCOC(=O)C1CCC(CC(=O)N2CCc3cnn(Cc4ccc(F)cc4)c3C2)CC1` (stereo not shown) [Example 1-17, Ethyl 4-(2-(1-(4-fluorobenzyl)-4,5-dihydro-1H-pyrazolo[3,4-c]pyridin-6(7H)-yl)-2-oxoethyl)cyclohexanecarboxylate] was run?
The IC50 was no more than 0.1 µM.

With `O=C(O)C1CN(CC(=O)N2CCc3c(C(F)(F)F)nn(Cc4ccc(Cl)cc4F)c3C2)C1` [Example 13-17, 1-(2-(1-(4-Chloro-2-fluorobenzyl)-3-(trifluoromethyl)-4,5-dihydro-1H-pyrazolo[3,4-c]pyridin-6(7H)-yl)-2-oxoethyl)azetidine-3-carboxylic acid TFA salt] as the molecule, how does the IC50 read?
Its IC50 is no more than 0.1 µM.

How did the IC50 turn out when `O=C(C[C@H]1CC[C@H](C(=O)O)CC1)N1CCc2cnn(Cc3ccc(Cl)cc3F)c2C1` [Example 7-3, trans-4-(2-(1-(4-Chloro-2-fluorobenzyl)-4,5-dihydro-1H-pyrazolo[3,4-c]pyridin-6(7H)-yl)-2-oxoethyl)cyclohexanecarboxylic acid] was run?
The IC50 was no more than 0.1 µM.

`O=C(O)C1CCCN(CC(=O)N2CCc3c(C(F)(F)F)nn(Cc4ccc(Cl)cc4F)c3C2)CC1` (stereo not shown) [Example 13-20, 1-(2-(1-(4-Chloro-2-fluorobenzyl)-3-(trifluoromethyl)-4,5-dihydro-1H-pyrazolo[3,4-c]pyridin-6(7H)-yl)-2-oxoethyl)azepane-4-carboxylic acid TFA salt] was tested. Which IC50 did it give?
The IC50 was no more than 0.1 µM.

`CCOC(=O)C1CCC(CC(=O)N2CCc3c(C(F)(F)F)nn(Cc4ccccc4F)c3C2)CC1` (stereo not shown) [Example 1-19, Ethyl 4-(2-(1-(2-fluorobenzyl)-3-(trifluoromethyl)-4,5-dihydro-1H-pyrazolo[3,4-c]pyridin-6(7H)-yl)-2-oxoethyl)cyclohexanecarboxylate] was tested. Which IC50 did it give?
Its IC50 is no more than 0.1 µM.

`COC(=O)c1ccc(CC(=O)N2CCc3c(C(F)(F)F)nn(Cc4ccc(Cl)cc4F)c3C2)cc1` [Example 1-11, Methyl 4-(2-(1-(4-chloro-2-fluorobenzyl)-3-(trifluoromethyl)-4,5-dihydro-1H-pyrazolo[3,4-c]pyridin-6(7H)-yl)-2-oxoethyl)benzoate] was tested. Which IC50 did it give?
The IC50 was no more than 0.1 µM.

How did the IC50 turn out when `O=C(CC1C2CC3CC1CC(C(=O)O)(C3)C2)N1CCc2c(C(F)(F)F)nn(Cc3ccc(Cl)cc3F)c2C1` (stereo not shown) [Example 5-54, 4-(2-(1-(4-Chloro-2-fluorobenzyl)-3-(trifluoromethyl)-4,5-dihydro-1H-pyrazolo[3,4-c]pyridin-6(7H)-yl)-2-oxoethyl) adamantancarboxylic acid] was run?
Its IC50 is no more than 0.1 µM.

For `CC1CCN(CC(=O)N2CCc3c(C(F)(F)F)nn(Cc4ccc(Cl)cc4F)c3C2)CC1` [Example 12-13, 1-(1-(4-Chloro-2-fluorobenzyl)-3-(trifluoromethyl)-4,5-dihydro-1H-pyrazolo[3,4-c]pyridin-6(7H)-yl)-2-(4-methylpiperidin-1-yl)ethanone], which IC50 is on record?
The IC50 was no more than 0.1 µM.

Which IC50 does the source give for `O=C(O)[C@H]1C2C3C[C@@H]1C(CC(=O)N1CCc4c(C(F)(F)F)nn(Cc5ccc(F)cc5)c4C1)C32` (stereo partly drawn) [Example 6-17, (3R,4R)-5-(2-(1-(4-Fluorobenzyl)-3-(trifluoromethyl)-4,5-dihydro-1H-pyrazolo[3,4-c]pyridin-6(7H)-yl)-2-oxoethyl)tricyclo[2.2.1.02,6]heptane-3-carboxylic acid] here?
The IC50 was no more than 0.1 µM.

Which IC50 does the source give for `O=C(N[C@H]1CC[C@H](C(=O)O)CC1)N1CCc2c(C(F)(F)F)nn(Cc3ccc(Cl)cc3F)c2C1` [Example 5-7, trans-4-(1-(4-Chloro-2-fluorobenzyl)-3-(trifluoromethyl)-4,5,6,7-tetrahydro-1H-pyrazolo[3,4-c]pyridine-6-carboxamido)cyclohexanecarboxylic acid] here?
The IC50 was no more than 0.1 µM.

`CC(C)N1CCCC(CC(=O)N2CCc3c(C(F)(F)F)nn(Cc4ccc(F)cc4)c3C2)C1` (stereo not shown) [Example 11-4, 1-(1-(4-Fluorobenzyl)-3-(trifluoromethyl)-4,5-dihydro-1H-pyrazolo[3,4-c]pyridin-6(7H)-yl)-2-(1-isopropylpiperidin-3-yl)ethanone formate] was tested. Which IC50 did it give?
Its IC50 is no more than 0.1 µM.

Which IC50 does the source give for `O=C(O)C1CCC(CC(=O)N2CCc3c(C(F)(F)F)nn(Cc4ccc(F)cc4)c3C2)C1` (mixture of isomers) [Example 6-7, 3-(2-(1-(4-Fluorobenzyl)-3-(trifluoromethyl)-4,5-dihydro-1H-pyrazolo[3,4-c]pyridin-6(7H)-yl)-2-oxoethyl)cyclopentanecarboxylic acid] here?
Its IC50 is no more than 0.1 µM.

same assay, conditions: IC50, FRET assay, FS-3 2 μM, ATX 1.0 μg/mL, 30 minutes preincubation, 2 hours reaction at room temperature

Which IC50 does the source give for `COC(=O)C1CC2CCC(C1)N2CC(=O)N1CCc2c(C(F)(F)F)nn(Cc3ccc(Cl)cc3F)c2C1` (stereo not shown) [Example 12-4, Methyl 8-(2-(1-(4-chloro-2-fluorobenzyl)-3-(trifluoromethyl)-4,5-dihydro-1H-pyrazolo[3,4-c]pyridin-6(7H)-yl)-2-oxoethyl)-8-azabicyclo[3.2.1]octane-3-carboxylate] here?
The IC50 was no more than 0.1 µM.

With `O=C(CC1CC2CCC(C1)N2)N1CCc2c(C(F)(F)F)nn(Cc3ccc(Cl)cc3F)c2C1` (stereo not shown) [Example 9-1, 2-(8-Aza-bicyclo[3.2.1]octan-3-yl)-1-(1-(4-chloro-2-fluorobenzyl)-3-(trifluoromethyl)-4,5-dihydro-1H-pyrazolo[3,4-c]pyridin-6(7H)-yl)ethanone TFA salt] as the molecule, how does the IC50 read?
Its IC50 is no more than 0.1 µM.
